Results on four compounds are retold here after US20160160232A1, “ALS INHIBITOR HERBICIDE TOLERANT MUTANT PLANTS” (priority 2013, published 2016).

Holding throughout (format): in vivo, Brassica napus
Test [1] relates to spring oilseed rape variety ABILITY. Put plainly: Field trial, visible phytotoxicity (Table 2). The settings on record: applied at BBCH 14, 200 L/ha water, g ai/ha: Foramsulfuron 25, TCM 15, Iodosulfuron 7, Mesosulfuron 60, Amidosulfuron 30, Ethoxysulfuron 60, Imazamox 40, Metosulam 30, Bispyribac 50, Nicosulfuron 60, Metsulfuron 8, Propoxycarbazone 70, Pyroxsulam 50, Tribenuron 30, Rimsulfuron 12.5, Flucarbazone 40, Thifensulfuron 7.5. The source says: (§1) Seeds of spring oilseed rape homozygous for HETO133 and HETO134 were sown in a field according to typical practical agricultural methods. The registered spring oilseed rape variety ABILITY, the wild-type segregant (WTS), and plants comprising a P197S mutation on ALS I and a W574L mutation on ALS III (P197S-W574L) served as a comparison. All plants were cultivated up to BBCH stage 14 (four true leaves of the oilseed rape plants). Afterwards, the herbicides mentioned in table 2 have been applied to the oilseed rape plants by using specific spray equipment for small plot applications. The water amount used was 200 L/ha.

In test [2] the test system is wild-type segregant (WTS) oilseed rape. Put plainly: Field trial, visible phytotoxicity (Table 2). The settings on record: applied at BBCH 14, 200 L/ha water, g ai/ha: Foramsulfuron 25, TCM 15, Iodosulfuron 7, Mesosulfuron 60, Amidosulfuron 30, Ethoxysulfuron 60, Imazamox 40, Metosulam 30, Bispyribac 50, Nicosulfuron 60, Metsulfuron 8, Propoxycarbazone 70, Pyroxsulam 50, Tribenuron 30, Rimsulfuron 12.5, Flucarbazone 40, Thifensulfuron 7.5.
Text: as §1

Test [3] concerns oilseed rape comprising a P197S mutation on ALS I and a W574L mutation on ALS III (P197S-W574L). Kind of test: Field trial, visible phytotoxicity (Table 2). The settings on record: applied at BBCH 14, 200 L/ha water, g ai/ha: Foramsulfuron 25, TCM 15, Iodosulfuron 7, Mesosulfuron 60, Amidosulfuron 30, Ethoxysulfuron 60, Imazamox 40, Metosulam 30, Bispyribac 50, Nicosulfuron 60, Metsulfuron 8, Propoxycarbazone 70, Pyroxsulam 50, Tribenuron 30, Rimsulfuron 12.5, Flucarbazone 40, Thifensulfuron 7.5.
Text: as §1

Test [4] relates to oilseed rape homozygous for HETO133 and HETO134. Kind of test: Field trial, visible phytotoxicity (Table 2). The settings on record: applied at BBCH 14, 200 L/ha water, g ai/ha: Foramsulfuron 25, TCM 15, Iodosulfuron 7, Mesosulfuron 60, Amidosulfuron 30, Ethoxysulfuron 60, Imazamox 40, Metosulam 30, Bispyribac 50, Nicosulfuron 60, Metsulfuron 8, Propoxycarbazone 70, Pyroxsulam 50, Tribenuron 30, Rimsulfuron 12.5, Flucarbazone 40, Thifensulfuron 7.5.
Text: as §1

Test [5] concerns wild-type (WT) oilseed rape. Put plainly: Further field trial, phytotoxicity (Table 3). The settings on record: g ai/ha: IMAZAMOX 40, BISPYRIBAC-SODIUM 50, PROPOXYCARBAZONE-SODIUM 70, MESOSULFURON-METHYL 60, PYROXSULAM 12.5 with CLOQUINTOCET-MEXYL 37.5, each with RAPESEED OIL METHYLATED 366.5. As to the method: (§2) In a further field trial, seeds of spring oilseed rape comprising HETO133 and HETO134, and wild type (WT) seeds were sown in a field. For the untreated plants, biomass was determined at 9, 16 and 24 days after application (DAA) as compared to a control variety. For the treated plants, phytotoxicity was assessed at 9, 16 and 24 days after application (DAA) according to a scale from 0 to 100%. For both wild-type and HETO133-HETO134, no thinning was observed.

Test [6] concerns oilseed rape homozygous for HETO133 and HETO134. Kind of test: Further field trial, phytotoxicity (Table 3). The settings on record: g ai/ha: IMAZAMOX 40, BISPYRIBAC-SODIUM 50, PROPOXYCARBAZONE-SODIUM 70, MESOSULFURON-METHYL 60, PYROXSULAM 12.5 with CLOQUINTOCET-MEXYL 37.5, each with RAPESEED OIL METHYLATED 366.5. As to the method:
as §2

In the case of `COc1nn(C(=O)[N-]S(=O)(=O)c2ccccc2OC(F)(F)F)c(=O)n1C.[Na+]` [Flucarbazone, flucarbazone-sodium], in test [1], the “Percentage phytotoxicity ABILITY 7 DAA” value is recorded as 85%, the “Percentage phytotoxicity standard 14 DAA” value amounted to 98% and the “Percentage phytotoxicity standard 23 DAA” value is 99%. Further, in test [2], the “Percentage phytotoxicity WTS 7 DAA” value came to 85%, the “Percentage phytotoxicity WTS 14 DAA” value turned out to be 98% and the “Percentage phytotoxicity WTS 23 DAA” value was found to be 99%. In test [3], the “Percentage phytotoxicity P197S-W574L 7 DAA” value is 10%, the “Percentage phytotoxicity P197S-W574L 14 DAA” value is recorded as 6% and the “Percentage phytotoxicity P197S-W574L 23 DAA” value is 10%. In test [4], the “Percentage phytotoxicity HETO133-HETO134 7 DAA” value is recorded as 0%, the “Percentage phytotoxicity HETO133-HETO134 14 DAA” value is 0% and the “Percentage phytotoxicity HETO133-HETO134 23 DAA” value came to 0%.

In the case of `CCCOc1nn(C(=O)[N-]S(=O)(=O)c2ccccc2C(=O)OC)c(=O)n1C.[Na+]` [Propoxycarbazone, propoxycarbazone-sodium], in test [1], the “Percentage phytotoxicity ABILITY 7 DAA” value stood at 86%, the “Percentage phytotoxicity standard 14 DAA” value is listed as 98% and the “Percentage phytotoxicity standard 23 DAA” value was 99%. Moreover, in test [2], the “Percentage phytotoxicity WTS 7 DAA” value came out at 86%, the “Percentage phytotoxicity WTS 14 DAA” value was 98% and the “Percentage phytotoxicity WTS 23 DAA” value was 99%. For the same compound, in test [3], the “Percentage phytotoxicity P197S-W574L 7 DAA” value worked out at 47%, the “Percentage phytotoxicity P197S-W574L 14 DAA” value was determined as 52% and the “Percentage phytotoxicity P197S-W574L 23 DAA” value is reported as 47%. In test [4], the “Percentage phytotoxicity HETO133-HETO134 7 DAA” value is reported as 57%, the “Percentage phytotoxicity HETO133-HETO134 14 DAA” value is given as 72% and the “Percentage phytotoxicity HETO133-HETO134 23 DAA” value amounted to 83%. Besides, in test [5], the “Percentage phytotoxicity WT 9 DAA” value is given as 76.7%, the “Percentage phytotoxicity WT 16 DAA” value is 97% and the “Percentage phytotoxicity WT 24 DAA” value came to 97.7%. Further, in test [6], the “Percentage phytotoxicity HETO133-HETO134 9 DAA” value was 53.3%, the “Percentage phytotoxicity HETO133-HETO134 16 DAA” value is reported as 82.7% and the “Percentage phytotoxicity HETO133-HETO134 24 DAA” value was determined as 76.7%.

In the case of `COc1cc(OC)n2nc(NS(=O)(=O)c3c(C(F)(F)F)ccnc3OC)nc2n1` [Pyroxsulam, pyroxsulam], in test [1], the “Percentage phytotoxicity ABILITY 7 DAA” value is on record as 83%, the “Percentage phytotoxicity standard 14 DAA” value is 98% and the “Percentage phytotoxicity standard 23 DAA” value was 99%. In addition, in test [2], the “Percentage phytotoxicity WTS 7 DAA” value amounted to 83%, the “Percentage phytotoxicity WTS 14 DAA” value is 98% and the “Percentage phytotoxicity WTS 23 DAA” value is 99%. Also, in test [3], the “Percentage phytotoxicity P197S-W574L 7 DAA” value turned out to be 15%, the “Percentage phytotoxicity P197S-W574L 14 DAA” value came to 16% and the “Percentage phytotoxicity P197S-W574L 23 DAA” value is reported as 18%. In test [4], the “Percentage phytotoxicity HETO133-HETO134 7 DAA” value was 0%, the “Percentage phytotoxicity HETO133-HETO134 14 DAA” value was found to be 0% and the “Percentage phytotoxicity HETO133-HETO134 23 DAA” value is given as 5%. Also, in test [5], the “Percentage phytotoxicity WT 9 DAA” value turned out to be 76.7%, the “Percentage phytotoxicity WT 16 DAA” value is on record as 98% and the “Percentage phytotoxicity WT 24 DAA” value worked out at 98%. Further, in test [6], the “Percentage phytotoxicity HETO133-HETO134 9 DAA” value is reported as 13.3%, the “Percentage phytotoxicity HETO133-HETO134 16 DAA” value came out at 17% and the “Percentage phytotoxicity HETO133-HETO134 24 DAA” value came to 15%.

With `COC(=O)c1ccccc1S(=O)(=O)NC(=O)Nc1nc(C)nc(OC)n1` [Metsulfuron, metsulfuron-methyl], in test [1], the “Percentage phytotoxicity ABILITY 7 DAA” value is given as 86%, the “Percentage phytotoxicity standard 14 DAA” value is 98% and the “Percentage phytotoxicity standard 23 DAA” value is 99%. Besides, in test [2], the “Percentage phytotoxicity WTS 7 DAA” value was 86%, the “Percentage phytotoxicity WTS 14 DAA” value is 98% and the “Percentage phytotoxicity WTS 23 DAA” value is recorded as 99%. Further, in test [3], the “Percentage phytotoxicity P197S-W574L 7 DAA” value was determined as 45%, the “Percentage phytotoxicity P197S-W574L 14 DAA” value came out at 50% and the “Percentage phytotoxicity P197S-W574L 23 DAA” value is reported as 62%. In addition, in test [4], the “Percentage phytotoxicity HETO133-HETO134 7 DAA” value is 50%, the “Percentage phytotoxicity HETO133-HETO134 14 DAA” value is recorded as 63% and the “Percentage phytotoxicity HETO133-HETO134 23 DAA” value turned out to be 78%.
